# Results from paper PMC7057333 (ACS Omega, 2020).
# pIC50, pKd, pKi: −log10 of the molar value. Where two headings read alike, the source gives them in different places. Ends that are not written are not given here.
# What was measured:
# LSD1 [1] = target: T1, LSD1 (Homo sapiens, UniProt O60341); experiment: SPR biosensor interaction kinetic assay with immobilized LSD1 (15 °C, TBS-T with DTT); format: binding
# T1 construct: made in house; host or cells: Escherichia coli Rosetta 2 (pET15b)
# LSD1 [2] = target: T1, LSD1; experiment: HRP-coupled fluorescence LSD1 demethylation activity and inhibition assay, substrate H3_1-21 K4(Me); format: biochemical
# [3] = 100 μM, supplement sheet SMILES and Activity, read-out: Inhibition at 100 μM (%)
compound,measurement,setting,value
CSCC[C@H](NC(=O)[C@@H](NC(=O)[C@H](CCCNC(=N)N)NC(=O)[C@H](C)N)[C@@H](C)O)C(=O)N[C@@H](CCC(N)=O)C(=O)N[C@H](C(=O)N[C@@H](C)C(=O)N[C@@H](CCCNC(=N)N)C(=O)N[C@@H](CCCCN)C(=O)N[C@@H](CO)C(=O)N[C@H](C(=O)O)[C@@H](C)O)[C@@H](C)O [Peptide 4],pKd,"LSD1 [1]; KD, SPR, immobilized LSD1, 15 °C, ni = no interaction observed, ns = high nonspecific binding, weak interactions only approximated, highest concentration 200 μM",~3.85
same,pIC50,LSD1 [2],< 4.00
C[C@H](N)C(=O)N[C@@H](CCCNC(=N)N)C(=O)N[C@H](C(=O)N[C@@H](CCCCN)C(=O)N[C@@H](CCC(N)=O)C(=O)N[C@H](C(=O)N[C@@H](C)C(=O)N[C@@H](CCCNC(=N)N)C(=O)N[C@@H](CCCCN)C(=O)N[C@@H](CO)C(=O)N[C@H](C(N)=O)[C@@H](C)O)[C@@H](C)O)[C@@H](C)O [Peptide 9],pKd,LSD1 [1],< 4.00
"CCCC[C@H](NC(=O)[C@@H](NC(=O)[C@H](CCCNC(=N)N)NC(=O)[C@H](C)N)[C@@H](C)O)C(=O)N[C@@H](CCC(N)=O)C(=O)N[C@H](C(=O)N[C@@H](C)C(=O)N[C@@H](CCCNC(=N)N)C(=O)N[C@@H](CCCCN)C(=O)N[C@@H](CO)C(=O)N[C@H](C(N)=O)[C@@H](C)O)[C@@H](C)O [Peptide 15, ART(Nle)QTARKST-NH2]",pKd,LSD1 [1],< 3.70
"CCCCCC[C@H](NC(=O)[C@@H](NC(=O)[C@H](CCCNC(=N)N)NC(=O)[C@H](C)N)[C@@H](C)O)C(=O)N[C@@H](CCC(N)=O)C(=O)N[C@H](C(=O)N[C@@H](C)C(=O)N[C@@H](CCCNC(=N)N)C(=O)N[C@@H](CCCCN)C(=O)N[C@@H](CO)C(=O)N[C@H](C(N)=O)[C@@H](C)O)[C@@H](C)O [Peptide 16, ART(Aoc)QTARKST-NH2]",pKd,LSD1 [1],< 3.70
"C[C@H](N)C(=O)N[C@@H](CCCNC(=N)N)C(=O)N[C@H](C(=O)N[C@@H](CCc1ccccc1)C(=O)N[C@@H](CCC(N)=O)C(=O)N[C@H](C(=O)N[C@@H](C)C(=O)N[C@@H](CCCNC(=N)N)C(=O)N[C@@H](CCCCN)C(=O)N[C@@H](CO)C(=O)N[C@H](C(N)=O)[C@@H](C)O)[C@@H](C)O)[C@@H](C)O [Peptide 17, ART(homoPhe)QTARKST-NH2]",pKd,LSD1 [1],< 3.70
"CSCC[C@@H]1NC(=O)[C@@H](NC(=O)[C@H](CCCNC(=N)N)NC(=O)[C@H](C)N)C/C=C\C[C@@H](C(=O)N[C@@H](C)C(=O)N[C@@H](CCCNC(=N)N)C(=O)N[C@@H](CCCCN)C(=O)N[C@@H](CO)C(=O)N[C@H](C(N)=O)[C@@H](C)O)NC(=O)[C@H](CCC(N)=O)NC1=O [Peptide 21, ARG^alyMQG^alyARKST-NH2]",pKd,LSD1 [1],< 4.00
same,inhibition at 100 µM,LSD1 [2]; [3],95%
same,inhibition at 100 µM,LSD1 [2]; read-out: % inhibition at 100 μM,95%
"ARTMQTA-OH [Peptide 6, ARTMQTA-OH]",pKd,LSD1 [1],< 3.70
PRTMQTARKST-NH2 [Peptide 11],pKd,LSD1 [1],5.00
same,pKi,LSD1 [2],5.10
same,inhibition at 100 µM,LSD1 [2]; [3],93%
same,mode of inhibition,"LSD1 [2]; enzyme activity assay, inhibition kinetics",competitive inhibitor
same,pIC50,"LSD1 [2]; supplement sheet SMILES and Activity, read-out: IC50",4.90
